This note sets out measurements from ChEMBL document CHEMBL5725732, “Aglaroxin C and derivatives as HCV entry inhibitors” (2018).

The assay is described as follows: Cell Surface Biotinylation Assay: Huh7.5.1 cells from four 150 mm plates were treated with DMSO, Roc-A (20 nM), or infected by HCVcc. 48 h post-transfection, cells were washed three times with ice-cold PBS and resuspended in PBS at a density of 25×10^6 cells/ml. Freshly prepared Sulfo-NHS-SS-biotin (Pierce) was added to the cells (final concentration […]) and allowed to incubate at 4° C. for 30 min. Cells were then washed three times with ice-cold PBS. 25 mM Tris (pH 8.0) was added in the initial wash to quench any non-reacted biotin reagent. Following cell lysis in RIPA buffer (50 mM Tris-HCl [pH 7.5], 150 mM NaCl, 1% NP-40, 0.25% sodium deoxycholate, 1 mM EDTA, 2 mM Na3VO4 and Pierce protease inhibitor cocktail), lysates were cleared by centrifugation at 13,000×g for 15 min at 4° C. The cleared lysates were used for immunoprecipitation using a 1:1 mixture of Streptavidin beads (Pierce). Beads were washed three times with RIPA buffer, and bound proteins were eluted by boiling the samples in SDS-PAGE sample buffer and then resolved on 9% SDS-PAGE. Biotinylated proteins were detected by anti-PHB1 and anti-PHB2 antibodies. The note with it: Huh-7.5.1.

As usually defined, the EC50 is the concentration needed to bring the measured effect to its halfway point. With `COc1ccc([C@@]23Oc4cc(OC)cc(OC)c4[C@]2(O)c2nc4n(c(=O)c2[C@H]3c2ccccc2)CCC4)cc1` (racemic), the EC50 was 100 nM.
